Values joined by “and” are separate entries in the source; they are usually repeats but may differ in a detail not shown here. Equal entries are not always repeated.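 All cell lines were grown in 96-well plates and treated with compound for 48 hours. GI50 marks 50% less growth. TGI: concentration producing complete growth inhibition.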
Assays:
Assay in all cases: growth of human tumour cells (NCI), 48 h
HT29 colon = system: HT29 colon
786-0 renal = system: 786-0 renal
HCT-15 colon = system: HCT-15 colon
SNB-19 CNS = system: SNB-19 CNS
HCT-116 colon = system: HCT-116 colon
MALME-3M melanoma = system: MALME-3M melanoma
HS 578T breast = system: HS 578T breast
KM12 colon = system: KM12 colon
SW-620 colon = system: SW-620 colon
HOP-62 NSCLC = system: HOP-62 NSCLC

Structure (SMILES)	GI50 (HT29 colon)	TGI (HT29 colon)	GI50 (786-0 renal)	TGI (786-0 renal)	GI50 (HCT-15 colon)	TGI (HCT-15 colon)	GI50 (SNB-19 CNS)	TGI (SNB-19 CNS)	GI50 (HCT-116 colon)	TGI (HCT-116 colon)	GI50 (MALME-3M melanoma)	TGI (MALME-3M melanoma)	GI50 (HS 578T breast)	TGI (HS 578T breast)	GI50 (KM12 colon)	TGI (KM12 colon)	GI50 (SW-620 colon)	TGI (SW-620 colon)	GI50 (HOP-62 NSCLC)	TGI (HOP-62 NSCLC)
Nc1[nH]nc(Nc2ccccc2)c1-c1nc2ccccc2s1	3.39 µM	11.5 µM	1.34 µM	3.08 µM	1.18 µM	3.04 µM	2.08 µM	4.56 µM	1.29 µM	2.71 µM	2.79 µM	8.58 µM	2.53 µM	9.86 µM	1.61 µM	3.6 µM	2.58 µM	7.29 µM	2.08 µM	5.87 µM
O=C(O)/C=C/c1c2ccc(=O)c(O)c-2oc2c(O)c(O)ccc12	–	> 100 µM	–	54.9 µM	–	> 100 µM	–	> 100 µM	–	40 µM	–	> 100 µM	–	> 100 µM	–	> 100 µM	–	49.6 µM	–	61.1 µM
CN(C)Cc1ccc(NC(=O)c2cncc(C#Cc3cnc(N)c4ncccc34)c2)cc1C(F)(F)F	0.133 µM	1.86 µM	1.77 µM	3.26 µM	1.5 µM	3.1 µM	1.89 µM	3.5 µM	1.08 µM	2.33 µM	0.104 µM	0.956 µM	1.4 µM	3.12 µM	0.0759 µM	1.4 µM	1.5 µM	2.98 µM	1.57 µM	3.48 µM
CCN1C(=O)N(CC)C2C1NN=c1s/c(=C3\C(=O)Nc4ccccc43)c(=O)n12 (stereo not given)	0.374 µM	> 100 µM	0.588 µM	24.6 µM	0.41 µM	> 100 µM	0.633 µM	32.3 µM	0.485 µM	> 61.6 µM	0.557 µM	38.4 µM	0.347 µM	17.7 µM	0.452 µM	> 100 µM	0.409 µM	> 100 µM	0.734 µM	25.8 µM
O=C1c2ccccc2C(=O)N1c1ccc(Cc2ccc(N3C(=O)c4ccccc4C3=O)cc2)cc1	–	> 100 µM	–	> 100 µM	–	> 100 µM	–	> 100 µM	–	> 100 µM	–	> 100 µM	–	> 100 µM	–	> 100 µM	–	> 100 µM	–	> 100 µM
COc1cc(C[C@H]2COC(=O)[C@]2(O)Cc2ccc(OCc3ccccc3)c(OC)c2)ccc1OCc1ccccc1	4.16 µM	> 100 µM	85.4 µM	> 100 µM	19 µM	> 100 µM	> 100 µM	> 100 µM	16.8 µM	> 100 µM	8.33 µM	87.3 µM	42.9 µM	> 100 µM	7.3 µM	> 100 µM	> 100 µM	> 100 µM	> 100 µM	> 100 µM
COc1ccc([N+](=O)[O-])c2c(NCCCN(C)C)c(C)c(C)nc12	–	> 100 µM	–	> 100 µM	–	> 100 µM	–	> 100 µM	–	> 100 µM	–	> 100 µM	–	> 100 µM	–	> 100 µM	–	> 100 µM	–	> 100 µM
O=C(O)c1cccc([As]=[As]c2cccc(C(=O)O)c2)c1 (stereo not given)	–	> 100 µM	–	71.1 µM	–	> 100 µM	–	> 100 µM	–	> 100 µM	–	43.9 µM	–	90.8 µM	–	> 100 µM	–	> 100 µM	–	> 100 µM
CCc1nc(N)nc(N)c1C#CC(C)c1ccc(-c2ccncc2)cc1Cl (stereo not given)	0.00589 µM and 0.012 µM	5.82 µM and 2.45 µM	0.00501 µM and 0.0128 µM	4.06 µM and 6.63 µM	< 0.005 µM and 0.0127 µM	5.24 µM and 11.9 µM	0.0394 µM and 0.0796 µM	6.69 µM and 15.2 µM	< 0.005 µM	2.77 µM and 13 µM	0.0378 µM and 0.307 µM	1.93 µM and 13.1 µM	0.687 µM and 2.25 µM	3.47 µM and 19.9 µM	0.0271 µM and 0.0678 µM	5.73 µM and 14.5 µM	< 0.005 µM	6.58 µM and 14.9 µM	0.0266 µM and 0.0528 µM	1.92 µM and 13.9 µM
COc1ccc(C2=C(c3ccc(OC)cc3)C(=O)OC2)cc1	0.437 µM	> 100 µM	2.11 µM	10.9 µM	0.514 µM	8.27 µM	2.34 µM	> 100 µM	1.97 µM	11.8 µM	3.91 µM	35.4 µM	0.604 µM	3.93 µM	0.555 µM	> 37.7 µM	0.361 µM	> 42.5 µM	2.25 µM	24.6 µM
O=C(c1ccc(Cl)cc1Cl)N1CCN(C(=O)c2ccc(Cl)cc2Cl)C1=S	20.4 µM	48.9 µM	18.6 µM	42.3 µM	22.1 µM	57.3 µM	24.9 µM	65.2 µM	23.5 µM	57.5 µM	25.4 µM	62.7 µM	41 µM	> 100 µM	15.3 µM	29.4 µM	28.2 µM	98.2 µM	23.1 µM	66.5 µM
CCCC(=O)Oc1ccc(/C(=C(\C)c2ccc(Cl)cc2)c2ccc(OCCN(CC)CC)cc2)cc1	1.85 µM	4.06 µM	1.74 µM	3.5 µM	1.68 µM	3.73 µM	2.81 µM	7.29 µM	1.55 µM	3.21 µM	1.74 µM	3.55 µM	2.68 µM	9.33 µM	3.05 µM	10.7 µM	1.99 µM	4.35 µM	2.16 µM	4.68 µM
O=CNC(Cc1cnc[nH]1)C(=O)O (stereo not given)	–	> 100 µM	–	> 100 µM	–	> 100 µM	–	> 100 µM	–	> 100 µM	–	> 100 µM	–	> 100 µM	–	> 100 µM	–	> 100 µM	–	> 100 µM
O=C(CSSCC(=O)c1ccc(Cl)cc1)c1ccc(Cl)cc1	3.42 µM	17 µM	4.41 µM	14.5 µM	6.73 µM	28.6 µM	4.94 µM	40.3 µM	3.79 µM	14.8 µM	3.19 µM	17 µM	7.51 µM	> 100 µM	3.82 µM	24.4 µM	4.13 µM	23.6 µM	5.03 µM	21.7 µM
O=C1c2ccccc2C(=O)c2c1ccc1conc21	–	13 µM	–	5.79 µM	–	5.66 µM	–	11.5 µM	–	3.51 µM	–	4.75 µM	–	38.6 µM	–	7.45 µM	–	4.36 µM	–	9.11 µM
O=C(O)CCC(O)=C1S(=O)(=O)OCCOS1(=O)=O	–	> 100 µM	–	> 100 µM	–	> 100 µM	–	> 100 µM	–	> 100 µM	–	> 100 µM	–	> 100 µM	–	> 100 µM	–	> 100 µM	–	> 100 µM
CC(=O)CC[N+](C)(C)C	–	53.5 µM	–	59.3 µM	–	46.4 µM	–	> 36.9 µM	–	54.4 µM	–	24.2 µM	–	> 39.3 µM	–	> 81.5 µM	–	27.8 µM	–	> 100 µM
COC(=O)CNC(=O)C(=O)c1c(O)c(O)c(C(C)C)c2cc(C)c(-c3c(C)cc4c(C(C)C)c(O)c(O)c(C(=O)C(=O)NCC(=O)OC)c4c3O)c(O)c12	1.58 µM	5.36 µM	2.35 µM	8.77 µM	1.49 µM	5.63 µM	1.53 µM	7.92 µM	1.79 µM	6.04 µM	2.23 µM	11 µM	1.83 µM	8.58 µM	1.39 µM	7.29 µM	1.96 µM	6.94 µM	2.41 µM	9.61 µM
Cc1cc(NC(=O)NCCOc2ccc(N3C(N)=NC(N)=NC3(C)C)cc2Cl)ccc1S(=O)(=O)F	0.484 µM	13.8 µM	5.02 µM	> 100 µM	49 µM	> 100 µM	4.31 µM	> 100 µM	0.545 µM	> 100 µM	7.46 µM	41.1 µM	9.84 µM	76.8 µM	1.04 µM	> 44.3 µM	0.661 µM	> 100 µM	8.36 µM	> 73.2 µM
COc1ccc(C2=Nn3c(nnc3-c3ccc(F)c(Cl)c3)SC2)cc1	> 100 µM	> 100 µM	> 100 µM	> 100 µM	> 100 µM	> 100 µM	> 100 µM	> 100 µM	61.6 µM	> 100 µM	> 100 µM	> 100 µM	> 100 µM	> 100 µM	> 100 µM	> 100 µM	> 100 µM	> 100 µM	> 100 µM	> 100 µM
O=[N+]([O-])c1ccc(Sc2cccc[n+]2[O-])c2nonc12	3.4 µM	29.4 µM	9.18 µM	22.3 µM	3.03 µM	14.7 µM	17.1 µM	> 100 µM	1.4 µM	12.5 µM	2.09 µM	5.34 µM	3.66 µM	28.1 µM	4.02 µM	14.4 µM	1.65 µM	3.41 µM	28 µM	> 56.4 µM
O=C1/C(=C/c2ccc(F)cc2)COc2ccc(O)c(O)c21	3.37 µM	> 100 µM	1.84 µM	5.63 µM	0.755 µM	5.85 µM	3.36 µM	15.8 µM	1.87 µM	4.98 µM	1.68 µM	4.34 µM	3.5 µM	> 100 µM	1.99 µM	6.82 µM	2.03 µM	11.3 µM	3.43 µM	17.8 µM
